We go through 29 molecules from patent publication US20220009918A1, “Chemical Compounds” (GlaxoSmithKline Intellectual Property Development Limited, priority 2018, published 2022).

The assay deals with T1, human H-PGDS (Homo sapiens, UniProt O60760).
T1 construct: Full length human H-PGDS cDNA (Invitrogen Ultimate ORF IOH13026) was amplified by PCR; 6-His (N); TEV protease cleavage site (N); made in house; host or cells: E. coli BL21 (DE3*) for H-PGDS; Sf9 insect cells (baculovirus) for COX-2
T1 sequence (O60760 whole entry): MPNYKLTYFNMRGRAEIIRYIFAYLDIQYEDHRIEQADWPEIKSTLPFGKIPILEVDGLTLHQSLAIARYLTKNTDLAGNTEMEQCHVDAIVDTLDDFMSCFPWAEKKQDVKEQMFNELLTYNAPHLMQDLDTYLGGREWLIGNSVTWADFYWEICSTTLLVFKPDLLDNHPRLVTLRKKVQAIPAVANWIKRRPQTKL
Nature of the assay: H-PGDS RapidFire high throughput mass spectrometry assay. Type of assay: biochemical. As to conditions: inhibition of conversion of PGH2 to PGD2 by H-PGDS; mean pIC50; read-out: Potency Range (mean pIC50) (converted). The procedure: H-PGDS RapidFire™ High Throughput Mass Spectrometry Assay
The H-PGDS RapidFire™ mass spectrometric assay monitors conversion of prostaglandin H2 (PGH2) to prostaglandin D2 (PGD2) by haematopoietic prostaglandin D synthase (H-PGDS). In the assay format described here, the substrate (PGH2) is formed in situ by the action of cyclooxygenase-2 on arachidonic acid. This first step is set up to be fast, and generates a burst of PGH2 at ˜10 μM. The PGH2 is then further converted to PGD2 by the H-PGDS enzyme. […] Plates are then read on the RapidFire™ high throughput solid phase extraction system (Agilent) which incorporates a solid phase extraction step coupled to a triple quadrupole mass spectrometer (AB SCIEX). Relative levels of PGD2 and PGF2α, which acts as a surrogate for substrate, are measured and a percent conversion calculated. Inhibitors are characterised as compounds which lower the conversion of PGH2 to PGD2.
Full length human H-PGDS cDNA (Invitrogen Ultimate ORF IOH13026) was amplified by PCR with the addition of a 5′ 6-His tag and TEV protease cleavage site. The PCR product was digested with NdeI and XhoI and ligated into pET22b+ (Merck Novagen®). Expression was carried out in E. coli strain BL21 (DE3*) using auto-induction Overnight Express™ Instant TB medium (Merck Novagen®) supplemented with 1% glycerol. The culture was first grown at 37° C. and the temperature was reduced to 25° C. when OD600 reached 2.0. Cells were harvested by centrifugation after a further 18 hours. 10 g of E. coli cell pellet was suspended to a total volume of 80 mL in lysis buffer (20 mM Tris-Cl pH 7.5, 300 mM NaCl, 20 mM imidazole, 5 mM p-mercaptoethanol, 10% glycerol). 1 mg/mL protease inhibitors (Protease Inhibitor Cocktail Set III, Merck Calbiochem®) and 1 mg/mL lysozyme were added to the cell suspension. The suspension was then sonicated for 5 min (UltraSonic Processor VCX 750, Cole-Parmer Instrument Co.) with a micro probe (50% amplitude, 10 sec on/off) and then centrifuged at 100,000 g for 90 minutes (at 4° C.). The supernatant was loaded onto a Ni-NTA HiTrap column (5 mL, GE Healthcare, pre-equilibrated in lysis buffer). The column was washed with 10 column volumes of lysis buffer and eluted with lysis buffer containing 500 mM imidazole. The pooled protein peak fractions were concentrated using a 10 kDa centrifugal filter at 3500 g and 4° C. (Amicon Ultra-15 centrifugal filter unit with Ultracel-10 membrane from Millipore). Further purification of the concentrated protein was carried out using gel filtration chromatography on a HiLoad 26/600 Superdex 75 preparative grade column (GE Healthcare Life Sciences) using 50 mM Tris pH 7.5, 50 mM NaCl, 1 mM dithiothreitol, 1 mM MgCl2. Fractions containing the protein were pooled, concentrated as described above, and stored at −80° C.
The full length human COX-2 gene (accession number L15326) was amplified by PCR to generate an EcoRI—HindIII fragment containing an in-frame FLAG tag. This was subcloned into pFastBac 1 (Invitrogen). The COX-2 FLAG plasmid was recombined into the baculovirus genome according to the BAC-to-BAC protocol described by Invitrogen. Transfection into Spodoptera frugiperda (Sf9) insect cells was performed using Cellfectin (Invitrogen), according to the manufacturer's protocol. Super Sf9 cells were cultured in EX420 media (SAFC Biosciences) to a density of approximately 1.5×10^6 cells/mL within a wave bioreactor. Recombinant virus was added at a Multiplicity of Infection (MOI) of 5 and the culture was allowed to continue for 3 days. Cells were harvested using a continuous feed centrifuge run at 2500 g at a rate of approximately 2 L/min with cooling. The resultant cell slurry was re-centrifuged in pots (2500 g, 20 min, 4° C.) and the cell paste was stored at −80° C. […]
`O=C(N[C@H]1CCNC1=O)c1cnc(-c2cc(F)cc(Cl)c2)s1` [Example 6, (S)-2-(3-Chloro-5-fluorophenyl)-N-(2-oxopyrrolidin-3-yl)thiazole-5-carboxamide]: the IC50 is 1.02 to 10 nM.
Regarding `O=C(N[C@H]1CCNC1=O)c1cnc(-c2cc(Cl)ccc2F)s1` [Example 7, (S)-2-(5-Chloro-2-fluorophenyl)-N-(2-oxopyrrolidin-3-yl)thiazole-5-carboxamide], the IC50 was 10.2 to 100 nM.
For `O=C(N[C@H]1CCNC1=O)c1cnc(-c2cccc(Cl)c2F)s1` [Example 8, (S)-2-(3-Chloro-2-fluorophenyl)-N-(2-oxopyrrolidin-3-yl)thiazole-5-carboxamide] the value was 10.2 to 100 nM; for `O=C(N[C@H]1CCNC1=O)c1cnc(-c2cc(Cl)cc(Cl)c2)s1` [Example 9, (S)-2-(3,5-Dichlorophenyl)-N-(2-oxopyrrolidin-3-yl)thiazole-5-carboxamide], 1.02 to 10 nM; for `O=C(N[C@H]1CCNC1=O)c1cnc(-c2cccc(C(F)F)c2)s1` [Example 10, (S)-2-(3-(Difluoromethyl)phenyl)-N-(2-oxopyrrolidin-3-yl)thiazole-5-carboxamide], 10.2 to 100 nM.
On to `C[C@@H]1CNC(=O)[C@H]1NC(=O)c1cnc(-c2cc(F)cc(Cl)c2)s1` [Example 11, 2-(3-Chloro-5-fluorophenyl)-N-((3S,4R)-4-methyl-2-oxopyrrolidin-3-yl)thiazole-5-carboxamide], for which the IC50 is 1.02 to 10 nM.
As for `O=C(N[C@H]1CCNC1=O)c1cnc(-c2cc(F)cc(C(F)F)c2)s1` [Example 12, (S)-2-(3-(Difluoromethyl)-5-fluorophenyl)-N-(2-oxopyrrolidin-3-yl)thiazole-5-carboxamide], the IC50 is 1.02 to 10 nM.
Regarding `C[C@@H]1CNC(=O)[C@H]1NC(=O)c1cnc(-c2cc(F)cc(C(F)F)c2)s1` [Example 13, 2-(3-(Difluoromethyl)-5-fluorophenyl)-N-((3S,4R)-4-methyl-2-oxopyrrolidin-3-yl)thiazole-5-carboxamide], the IC50 is 1.02 to 10 nM.
As for `NC(=O)CN1CC[C@H](NC(=O)c2cnc(-c3cc(F)cc(F)c3)s2)C1=O` [Example 17, (S)-N-(1-(2-Amino-2-oxoethyl)-2-oxopyrrolidin-3-yl)-2-(3,5-difluorophenyl)thiazole-5-carboxamide], the IC50 is 102 to 1000 nM.
Take `CC1(C)CNC(=O)[C@H]1NC(=O)c1cnc(-c2cc(F)cc(Cl)c2)s1` [Example 19, (S)-2-(3-Chloro-5-fluorophenyl)-N-(4,4-dimethyl-2-oxopyrrolidin-3-yl)thiazole-5-carboxamide]: the IC50 is 10.2 to 100 nM.
As for `O=C(N[C@H]1CC2(CC2)NC1=O)c1cnc(-c2cc(F)cc(Cl)c2)s1` [Example 21, (S)-2-(3-Chloro-5-fluorophenyl)-N-(5-oxo-4-azaspiro[2.4]heptan-6-yl)thiazole-5-carboxamide], the figure is 1.02 to 10 nM.
For `O=C(N[C@@H]1CC2(CC2)NC1=O)c1cnc(-c2cc(F)cc(Cl)c2)s1` [Example 22, (R)-2-(3-Chloro-5-fluorophenyl)-N-(5-oxo-4-azaspiro[2.4]heptan-6-yl)thiazole-5-carboxamide], the IC50 was 102 to 1000 nM.
In the case of `CCC1(CC)CNC(=O)[C@@H]1NC(=O)c1cnc(-c2cc(F)cc(Cl)c2)s1` [Example 24, (R)-2-(3-Chloro-5-fluorophenyl)-N-(4,4-diethyl-2-oxopyrrolidin-3-yl)thiazole-5-carboxamide], the IC50 is 1020 to 10000 nM.
As for `CCC1(CC)CNC(=O)[C@H]1NC(=O)c1cnc(-c2cc(F)cc(Cl)c2)s1` [Example 25, (S)-2-(3-Chloro-5-fluorophenyl)-N-(4,4-diethyl-2-oxopyrrolidin-3-yl)thiazole-5-carboxamide], the IC50 was 10.2 to 100 nM.
As to `O=C(N[C@@H]1CCNC1=O)c1cnc(-c2cc(F)cc(Cl)c2)s1` [Example 26, (R)-2-(3-Chloro-5-fluorophenyl)-N-(2-oxopyrrolidin-3-yl)thiazole-5-carboxamide], the IC50 was 102 to 1000 nM.
Regarding `O=C(N[C@@H]1CC2(CCC2)NC1=O)c1cnc(-c2cc(F)cc(Cl)c2)s1` [Example 28, (R)-2-(3-Chloro-5-fluorophenyl)-N-(6-oxo-5-azaspiro[3.4]octan-7-yl)thiazole-5-carboxamide], the IC50 was 102 to 1000 nM.
On to `O=C(N[C@H]1CC2(CCC2)NC1=O)c1cnc(-c2cc(F)cc(Cl)c2)s1` [Example 29, (S)-2-(3-Chloro-5-fluorophenyl)-N-(6-oxo-5-azaspiro[3.4]octan-7-yl)thiazole-5-carboxamide], for which the IC50 is 1.02 to 10 nM.
For the molecule `Cc1nc(-c2cccc(Cl)c2)sc1C(=O)N[C@H]1CCNC1=O` [Example 30, (S)-2-(3-Chlorophenyl)-4-methyl-N-(2-oxopyrrolidin-3-yl)thiazole-5-carboxamide], the IC50 was 10.2 to 100 nM.
As for `Cc1cnn(-c2ncc(C(=O)N[C@H]3CCNC3=O)s2)c1` [Example 31, (S)-2-(4-Methyl-1H-pyrazol-1-yl)-N-(2-oxopyrrolidin-3-yl)thiazole-5-carboxamide], the figure is 1020 to 10000 nM.
With `Cc1cn(-c2ncc(C(=O)N[C@H]3CCNC3=O)s2)cn1` [Example 32, (S)-2-(4-Methyl-1H-imidazol-1-yl)-N-(2-oxopyrrolidin-3-yl)thiazole-5-carboxamide], the IC50 is 1020 to 10000 nM.
For `O=C(N[C@H]1CCNC1=O)c1cnc(-c2ccccc2)s1` [Example 33, (S)-N-(2-Oxopyrrolidin-3-yl)-2-phenylthiazole-5-carboxamide] the value was 10.2 to 100 nM.
Regarding `C[C@H]1[C@H](C)NC(=O)[C@@H]1NC(=O)c1cnc(-c2cc(F)cc(Cl)c2)s1` [Example 35, 2-(3-Chloro-5-fluorophenyl)-N-((3R,4S,5S)-4,5-dimethyl-2-oxopyrrolidin-3-yl)thiazole-5-carboxamide], the IC50 is 102 to 1000 nM.
Regarding `C[C@H]1[C@H](NC(=O)c2cnc(-c3cc(F)cc(Cl)c3)s2)C(=O)N[C@@H]1C` [Example 36, 2-(3-Chloro-5-fluorophenyl)-N-((3S,4R,5R)-4,5-dimethyl-2-oxopyrrolidin-3-yl)thiazole-5-carboxamide], the IC50 is 10.2 to 100 nM.
Take `O=C(N[C@H]1CCNC1=O)c1cnc(-c2cccc(Br)c2)s1` [Example 37, (S)-2-(3-Bromophenyl)-N-(2-oxopyrrolidin-3-yl)thiazole-5-carboxamide]: the IC50 is 10.2 to 100 nM.
`O=C(N[C@H]1CCNC1=O)c1cnc(-c2ccncc2)s1` [Example 38, (S)-N-(2-Oxopyrrolidin-3-yl)-2-(pyridin-4-yl)thiazole-5-carboxamide]: the IC50 is 1020 to 10000 nM.
Consider `O=C(N[C@H]1CCNC1=O)c1cnc(-c2ccccn2)s1` [Example 39, (S)-N-(2-Oxopyrrolidin-3-yl)-2-(pyridin-2-yl)thiazole-5-carboxamide], for which the IC50 was 102 to 1000 nM.
As to `O=C(N[C@H]1CCNC1=O)c1cnc(-c2cccnc2)s1` [Example 40, (S)-N-(2-Oxopyrrolidin-3-yl)-2-(pyridin-3-yl)thiazole-5-carboxamide], the IC50 was 102 to 1000 nM.
As for `C[C@H]1C[C@@H](NC(=O)c2cnc(-c3cc(F)cc(Cl)c3)s2)C(=O)N1` [Example 41, 2-(3-Chloro-5-fluorophenyl)-N-((3R,5S)-5-methyl-2-oxopyrrolidin-3-yl)thiazole-5-carboxamide], the figure is 10.2 to 100 nM; as for `Cc1ccnc(-c2ncc(C(=O)N[C@H]3CCNC3=O)s2)n1` [Example 42, (S)-2-(4-Methylpyrimidin-2-yl)-N-(2-oxopyrrolidin-3-yl)thiazole-5-carboxamide], 102 to 1000 nM.
